Source: patent publication US11447466B2, “Substituted indole compounds useful as inhibitors of TLR7/8/9” (BRISTOL-MYERS SQUIBB COMPANY, priority 2017, dated 2022)

Key:
Format in all cases: cell-based
human TLR8 = biological target: T1, human TLR8 (Homo sapiens, UniProt Q9NR97); assay: TLR8 inhibition reporter assay (HEK-Blue SEAP reporter, R848 stimulation); conditions: HEK-Blue cells overexpressing human TLR8, SEAP reporter, R848 15.9 μM, 22 hour incubation
T1 construct: host or cells: HEK-Blue cells
T1 sequence (Q9NR97 27-1041): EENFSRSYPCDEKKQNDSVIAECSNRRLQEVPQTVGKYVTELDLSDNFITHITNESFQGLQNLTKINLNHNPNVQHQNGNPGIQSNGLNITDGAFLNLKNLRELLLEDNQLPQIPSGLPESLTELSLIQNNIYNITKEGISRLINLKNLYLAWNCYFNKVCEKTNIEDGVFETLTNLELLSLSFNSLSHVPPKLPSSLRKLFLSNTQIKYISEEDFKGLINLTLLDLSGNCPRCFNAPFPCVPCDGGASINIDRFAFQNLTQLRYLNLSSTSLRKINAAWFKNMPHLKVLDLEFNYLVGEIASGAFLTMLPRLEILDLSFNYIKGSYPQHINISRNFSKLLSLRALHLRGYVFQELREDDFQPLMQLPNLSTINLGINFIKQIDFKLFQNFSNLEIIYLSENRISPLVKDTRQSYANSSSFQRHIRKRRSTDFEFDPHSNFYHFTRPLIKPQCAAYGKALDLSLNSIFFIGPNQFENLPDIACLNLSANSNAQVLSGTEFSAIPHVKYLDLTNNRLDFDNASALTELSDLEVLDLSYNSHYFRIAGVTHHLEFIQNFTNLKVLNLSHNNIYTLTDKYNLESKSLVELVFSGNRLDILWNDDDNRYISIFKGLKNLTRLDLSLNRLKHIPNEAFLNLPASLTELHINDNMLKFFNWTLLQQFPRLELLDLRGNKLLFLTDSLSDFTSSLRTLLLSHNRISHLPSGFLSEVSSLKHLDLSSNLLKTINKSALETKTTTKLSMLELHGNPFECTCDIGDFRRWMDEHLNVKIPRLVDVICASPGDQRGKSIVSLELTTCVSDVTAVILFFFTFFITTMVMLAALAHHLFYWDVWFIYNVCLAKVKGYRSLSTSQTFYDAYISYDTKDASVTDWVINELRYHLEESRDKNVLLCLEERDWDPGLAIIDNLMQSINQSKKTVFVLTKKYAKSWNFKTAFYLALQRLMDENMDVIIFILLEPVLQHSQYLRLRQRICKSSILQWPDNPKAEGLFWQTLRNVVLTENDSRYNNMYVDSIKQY
Experimental: (§1) TLR7/8/9 Inhibition Reporter Assays
(§2) HEK-Blue™-cells (Invivogen) overexpressing human TLR7, TLR8 or TLR9 receptors were used for screening inhibitors of these receptors using an inducible SEAP (secreted embryonic alkaline phosphatase) reporter gene under the control of the IFN-β minimal promoter fused to five NF-κB and AP-1-binding sites. Briefly, cells are seeded into Greiner 384 well plates (15000 cells per well for TLR7, 20,000 for TLR8 and 25,000 for TLR9) and then treated with test compounds in DMSO to yield a final dose response concentration range of 0.05 nM-50 μM. After a 30 minute compound pre-treatment at room temperature, the cells are then stimulated with a TLR7 ligand (gardiquimod at a final concentration of 7.5 μM), TLR8 ligand (R848 at a final concentration of 15.9 μM) or TLR9 ligand (ODN2006 at a final concentration of 5 nM) to activate NF-κB and AP-1 which induce the production of SEAP. After a 22 hour incubation at 37° C., 5% CO2, SEAP levels are determined with the addition of HEK-Blue™ Detection reagent (Invivogen), a cell culture medium that allows for detection of SEAP, according to manufacturer's specifications. The percent inhibition is determined as the % reduction in the HEK-Blue signal present in wells treated with agonist plus DMSO alone compared to wells treated with a known inhibitor.

human TLR9 = biological target: T2, human TLR9 (Homo sapiens, UniProt Q9NR96); assay: TLR9 inhibition reporter assay (HEK-Blue SEAP reporter, ODN2006 stimulation); conditions: HEK-Blue cells overexpressing human TLR9, SEAP reporter, ODN2006 5 nM, 22 hour incubation
T2 construct: host or cells: HEK-Blue cells
T2 sequence (Q9NR96 26-1032): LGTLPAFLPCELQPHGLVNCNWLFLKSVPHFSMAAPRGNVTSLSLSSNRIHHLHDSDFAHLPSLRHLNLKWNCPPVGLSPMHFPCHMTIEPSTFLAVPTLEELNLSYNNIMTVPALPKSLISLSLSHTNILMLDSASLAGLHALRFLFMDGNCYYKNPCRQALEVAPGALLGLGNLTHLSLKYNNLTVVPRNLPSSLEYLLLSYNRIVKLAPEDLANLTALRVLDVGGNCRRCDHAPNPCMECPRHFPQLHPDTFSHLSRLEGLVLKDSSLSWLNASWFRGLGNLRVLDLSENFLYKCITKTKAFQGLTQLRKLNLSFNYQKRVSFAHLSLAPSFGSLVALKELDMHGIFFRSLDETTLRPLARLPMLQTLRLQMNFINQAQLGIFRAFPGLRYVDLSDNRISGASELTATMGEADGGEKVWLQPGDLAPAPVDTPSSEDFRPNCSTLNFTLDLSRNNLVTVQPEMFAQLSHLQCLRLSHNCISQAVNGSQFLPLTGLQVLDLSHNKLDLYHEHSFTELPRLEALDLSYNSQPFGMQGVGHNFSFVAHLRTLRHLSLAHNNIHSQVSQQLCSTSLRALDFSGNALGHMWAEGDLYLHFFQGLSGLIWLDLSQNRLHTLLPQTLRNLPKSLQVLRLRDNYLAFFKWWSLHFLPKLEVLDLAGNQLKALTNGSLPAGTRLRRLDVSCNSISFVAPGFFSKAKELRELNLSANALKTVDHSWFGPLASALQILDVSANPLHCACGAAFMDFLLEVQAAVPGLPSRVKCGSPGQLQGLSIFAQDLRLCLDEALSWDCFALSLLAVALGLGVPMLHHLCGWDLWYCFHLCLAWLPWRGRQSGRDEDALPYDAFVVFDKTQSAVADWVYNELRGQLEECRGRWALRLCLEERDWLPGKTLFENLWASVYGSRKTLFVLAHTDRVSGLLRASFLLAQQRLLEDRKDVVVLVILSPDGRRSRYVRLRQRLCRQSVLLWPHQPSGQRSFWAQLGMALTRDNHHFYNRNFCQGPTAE
Experimental: as §1, §2

human TLR7 = biological target: T3, human TLR7 (Homo sapiens, UniProt Q9NYK1); assay: TLR7 inhibition reporter assay (HEK-Blue SEAP reporter, gardiquimod stimulation); conditions: HEK-Blue cells overexpressing human TLR7, SEAP reporter, gardiquimod 7.5 μM, 22 hour incubation
T3 construct: host or cells: HEK-Blue cells
T3 sequence (Q9NYK1 27-1049): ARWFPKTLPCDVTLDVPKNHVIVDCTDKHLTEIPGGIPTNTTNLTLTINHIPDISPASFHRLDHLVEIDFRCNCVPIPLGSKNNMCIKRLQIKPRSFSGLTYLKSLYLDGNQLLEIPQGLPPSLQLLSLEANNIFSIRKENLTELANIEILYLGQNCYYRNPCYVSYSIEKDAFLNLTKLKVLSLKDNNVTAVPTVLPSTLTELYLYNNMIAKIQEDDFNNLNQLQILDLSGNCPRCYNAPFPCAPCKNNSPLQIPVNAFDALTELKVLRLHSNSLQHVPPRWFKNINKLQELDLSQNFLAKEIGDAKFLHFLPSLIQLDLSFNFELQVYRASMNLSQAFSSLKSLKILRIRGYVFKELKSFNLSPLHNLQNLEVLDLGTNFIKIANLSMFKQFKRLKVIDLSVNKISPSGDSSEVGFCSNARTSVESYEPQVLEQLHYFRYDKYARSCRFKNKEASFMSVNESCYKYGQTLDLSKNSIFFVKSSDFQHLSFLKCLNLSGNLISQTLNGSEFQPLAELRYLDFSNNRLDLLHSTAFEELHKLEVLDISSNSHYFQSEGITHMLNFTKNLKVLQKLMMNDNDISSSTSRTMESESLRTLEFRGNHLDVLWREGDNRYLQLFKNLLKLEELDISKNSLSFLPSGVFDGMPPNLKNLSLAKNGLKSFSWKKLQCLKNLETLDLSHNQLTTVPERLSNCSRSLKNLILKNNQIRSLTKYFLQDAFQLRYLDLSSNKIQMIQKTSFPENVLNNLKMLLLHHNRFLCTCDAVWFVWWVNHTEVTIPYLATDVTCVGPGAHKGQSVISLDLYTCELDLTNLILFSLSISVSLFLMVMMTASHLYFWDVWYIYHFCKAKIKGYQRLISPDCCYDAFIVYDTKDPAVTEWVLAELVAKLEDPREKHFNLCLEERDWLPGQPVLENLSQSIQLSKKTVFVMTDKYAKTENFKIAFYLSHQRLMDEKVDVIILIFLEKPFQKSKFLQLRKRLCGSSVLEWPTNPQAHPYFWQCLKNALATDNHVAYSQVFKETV
Experimental: as §1, §2

In the case of CC(C)c1c(-c2ccc(=O)n(C)c2)[nH]c2ccc(C3CCNCC3)cc12 [Example 1, 5-(3-isopropyl-5-(piperidin-4-yl)-1H-indol-2-yl)-1-methylpyridin-2(1H)-one], the IC50 (human TLR8) is reported as 0.0154 µM, the IC50 (human TLR9) is reported as 0.621 µM and the IC50 (human TLR7) is reported as 0.0275 µM.
Work on Cc1cc(-c2[nH]c3ccc(C4CCNCC4)cc3c2C(C)C)cn(C)c1=O [Example 2, 5-(3-isopropyl-5-(piperidin-4-yl)-1H-indol-2-yl)-1,3-dimethylpyridin-2(1H)-one] yielded an IC50 (human TLR8) of 0.0051 µM, an IC50 (human TLR9) of 4.33 µM and an IC50 (human TLR7) of 0.0016 µM.
Compound Cc1cc(-c2[nH]c3ccc(C4CCNCC4)cc3c2C(C)C)c(C)n(C)c1=O [Example 3, 5-(3-isopropyl-5-(piperidin-4-yl)-1H-indol-2-yl)-1,3,6-trimethylpyridin-2(1H)-one] has an IC50 (human TLR8) of 0.0034 µM, an IC50 (human TLR9) of 0.979 µM and an IC50 (human TLR7) of 0.0084 µM.
CC(C)c1c(-c2cn(C)c(=O)cn2)[nH]c2ccc(C3CCNCC3)cc12 [Example 4, 5-(3-isopropyl-5-(piperidin-4-yl)-1H-indol-2-yl)-1-methylpyrazin-2(1H)-one] gave an IC50 (human TLR8) of 0.0384 µM, an IC50 (human TLR9) of 0.756 µM and an IC50 (human TLR7) of 0.0828 µM.
For CC(C)c1c(-c2ccc(=O)n(C)n2)[nH]c2ccc(C3CCNCC3)cc12 [Example 5, 6-(3-isopropyl-5-(piperidin-4-yl)-1H-indol-2-yl)-2-methylpyridazin-3(2H)-one], the IC50 (human TLR8) was 0.107 µM, the IC50 (human TLR9) was 0.763 µM and the IC50 (human TLR7) was 0.179 µM.
For Cc1c(-c2[nH]c3ccc(C4CCNCC4)cc3c2C(C)C)ccc(=O)n1C [Example 6, 5-(3-isopropyl-5-(piperidin-4-yl)-1H-indol-2-yl)-1,6-dimethylpyridin-2(1H)-one], the IC50 (human TLR8) was 0.0133 µM, the IC50 (human TLR9) was 0.58 µM and the IC50 (human TLR7) was 0.0128 µM.
For Cc1cc(=O)n(C)cc1-c1[nH]c2ccc(C3CCNCC3)cc2c1C(C)C [Example 8, 5-(3-isopropyl-5-(piperidin-4-yl)-1H-indol-2-yl)-1,4-dimethylpyridin-2(1H)-one], the IC50 (human TLR8) was 0.0435 µM, the IC50 (human TLR9) was 0.957 µM and the IC50 (human TLR7) was 0.0727 µM.
For CC(C)c1c(-c2cc(N)c(=O)n(C)c2)[nH]c2ccc(C3CCNCC3)cc12 [Example 9, 3-amino-5-(3-isopropyl-5-(piperidin-4-yl)-1H-indol-2-yl)-1-methylpyridin-2(1H)-one], the IC50 (human TLR8) was 0.0115 µM, the IC50 (human TLR9) was 0.879 µM and the IC50 (human TLR7) was 0.0508 µM.
Cc1cc(=O)n(C)nc1-c1[nH]c2ccc(C3CCNCC3)cc2c1C(C)C [Example 10, 6-(3-isopropyl-5-(piperidin-4-yl)-1H-indol-2-yl)-2,5-dimethylpyridazin-3(2H)-one] was tested, and the IC50 (human TLR8) was 0.0384 µM, the IC50 (human TLR9) was 1.54 µM and the IC50 (human TLR7) was 0.33 µM.
With Cc1cc(-c2[nH]c3ccc(C4CCNCC4)cc3c2C(C)C)nn(C)c1=O [Example 11, 6-(3-isopropyl-5-(piperidin-4-yl)-1H-indol-2-yl)-2,4-dimethylpyridazin-3(2H)-one] the IC50 (human TLR8) was 0.0033 µM, the IC50 (human TLR9) was 4.85 µM and the IC50 (human TLR7) was 0.0053 µM.
With CC(C)c1c(-c2cc(C(=O)N(C)C)c(=O)n(C)c2)[nH]c2ccc(C3CCNCC3)cc12 [Example 63, 5-(3-isopropyl-5-(piperidin-4-yl)-1H-indol-2-yl)-N,N,1-trimethyl-2-oxo-1,2-dihydropyridine-3-carboxamide] the IC50 (human TLR9) was at least 50 µM.
With Cc1cc(-c2[nH]c3ccc(C4CCN(CC(=O)NC[C@@H](C)O)CC4)cc3c2C(C)C)cn(C)c1=O [Example 125, (R)-2-(4-(2-(1,5-dimethyl-6-oxo-1,6-dihydropyridin-3-yl)-3-isopropyl-1H-indol-5-yl)piperidin-1-yl)-N-(2-hydroxypropyl)acetamide] the IC50 (human TLR8) was 0.289 µM and the IC50 (human TLR9) was at least 50 µM.
With Cc1cc(-c2[nH]c3ccc(C4CCN(CC(=O)NC[C@H](C)O)CC4)cc3c2C(C)C)cn(C)c1=O [Example 126, (S)-2-(4-(2-(1,5-dimethyl-6-oxo-1,6-dihydropyridin-3-yl)-3-isopropyl-1H-indol-5-yl)piperidin-1-yl)-N-(2-hydroxypropyl)acetamide] the IC50 (human TLR8) was 0.631 µM and the IC50 (human TLR9) was at least 50 µM.
CCCN1CCC(c2ccc3[nH]c(-c4cc(N5CCCCC5)c(=O)n(C)c4)c(C(C)C)c3c2)CC1 [Example 173, 5-(3-isopropyl-5-(1-propylpiperidin-4-yl)-1H-indol-2-yl)-1-methyl-3-(piperidin-1-yl) pyridin-2(1H)-one] gave an IC50 (human TLR8) of 0.983 µM and an IC50 (human TLR9) of 6.61 µM.
